Key:
Veliparib + Dasatinib = compound: C[C@]1(c2nc3c(C(N)=O)cccc3[nH]2)CCCN1 [Veliparib] + Cc1nc(Nc2ncc(C(=O)Nc3c(C)cccc3Cl)s2)cc(N2CCN(CCO)CC2)n1 [Dasatinib] (partner 0.075 µM); assay: relative viability (nuclei count vs DMSO), 5 days (fraction); higher = more cells survive
Summary of the method: (§1)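 Dosing by pin tool came one day after lung cancer cell lines were seeded in 1536-well plates, using either one drug or a fixed anchor-drug dose plus five library-drug doses (not always all listed) in √10 steps. After 5 days, nuclei were counted on 4× images. Relative viability is treated-well nuclei count divided by vehicle-well nuclei count, and values are medians of duplicate plates.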

[1] = compound: COC1=CC=C(C=C1)CN2C=CC3=C2C=C(C=C3)C(=O)NO + CC(=O)Nc1cccc(-n2c(=O)n(C3CC3)c(=O)c3c(Nc4ccc(I)cc4F)n(C)c(=O)c(C)c32)c1 [Trametinib] (partner 0.02 µM); assay: as above
Summary of the method: as §1

Cell Line | relative viability (Veliparib + Dasatinib; first compound 0.02 µM) | relative viability (Veliparib + Dasatinib; first compound 0.06325 µM) | relative viability (Veliparib + Dasatinib; first compound 0.2 µM) | relative viability (Veliparib + Dasatinib; first compound 0.6325 µM) | relative viability (Veliparib + Dasatinib; first compound 2 µM) | relative viability ([1]; first compound 0.08 µM) | relative viability ([1]; first compound 0.8 µM) | relative viability ([1]; first compound 2.53 µM) | relative viability ([1]; first compound 8 µM) | relative viability ([1]; first compound 0.253 µM)
EMC-BAC-2 | 0.362 | 0.27 | 0.333 | 0.305 | 0.315 | 0.629 | 0.971 | 0.95 | 0.803 | 
NCI-H2405 | 0.225 | 0.171 | 0.225 | 0.244 | 0.222 | 0.544 | 0.641 | 0.686 | 0.625 | 
NCI-H661 | 0.886 | 0.846 | 0.777 | 0.86 | 0.869 |  | 0.611 | 0.533 | 0.457 | 0.634
NCI-H650 | 0.378 | 0.372 | 0.414 | 0.369 | 0.423 | 1.07 | 1 | 1.03 | 1.04 | 0.981
HCC-15 |  | 0.524 | 0.629 | 0.603 | 0.582 | 0.334 | 0.424 | 0.41 | 0.372 | 0.355
PC-14 | 0.214 | 0.26 | 0.319 | 0.281 | 0.317 | 0.741 | 0.753 | 0.722 | 0.734 | 0.687
NCI-H1944 | 0.204 | 0.196 | 0.21 | 0.195 | 0.219 |  | 0.449 | 0.421 | 0.429 | 0.415
SK-MES-1 | 0.39 | 0.34 | 0.432 | 0.397 | 0.484 | 0.549 | 0.549 | 0.586 | 0.575 | 0.551
NCI-H1648 |  |  |  |  |  | 0.413 | 0.461 | 0.583 | 0.438 | 0.42
HCC-44 |  |  |  |  |  | 1.04 | 0.996 | 1.04 | 1.06 | 1.02
H3255 | 0.303 | 0.344 | 0.253 | 0.402 | 0.32 | 0.593 | 0.618 | 0.672 | 0.547 | 0.608
NCI-H2228 | 0.51 | 0.509 | 0.508 | 0.357 | 0.467 | 0.386 | 0.831 | 0.598 | 0.433 | 0.664
COR-L 105 | 0.355 | 0.273 | 0.352 | 0.331 | 0.324 | 0.348 | 0.443 | 0.471 | 0.385 | 0.469
RERF-LC-KJ | 0.574 | 0.865 | 0.845 | 0.767 | 0.755 | 0.865 | 0.827 | 0.892 | 0.809 | 1.06
NCI-H647 | 0.164 | 0.187 | 0.243 | 0.165 | 0.192 | 0.481 | 0.493 | 0.669 | 0.439 | 0.365
NCI-H2342 | 0.293 | 0.297 | 0.299 | 0.321 | 0.288 | 0.815 | 0.759 | 0.971 | 0.861 | 0.901
ChaGo-K-1 | 0.336 | 0.615 | 0.566 | 0.624 | 0.584 |  | 0.887 | 0.861 | 0.803 | 0.924
NCI-H358 | 0.0991 | 0.156 | 0.169 | 0.131 | 0.152 |  | 0.153 | 0.15 | 0.112 | 0.165

Reference: the supplement of paper PMC10307832
